US20240117402A1, “METHODS FOR (POLY) PEPTIDE TANDEM LIGATION AND CYCLIZATION” (Nanyang Technological University, priority 2021, published 2024)
Where no end group is shown, it is not given here.

Tests used:
VyPAL2 [1] = test: VyPAL2-catalyzed peptide cyclization (substrate screen, pH scan, kinetics); format: biochemical, Viola yedoensis
Procedure: (§1) FIG. 9. Screening of P1′-Asp peptides for cyclization by A) VyPAL2, B) butelase-1 and C) OaAEP1b. Quantitative summary of reaction yields of the reaction mixtures. For each reaction, 25 nM of the enzyme and 5 μM of the peptide substrate (21a-21i) were mixed and reacted at pH 4.5, 25° C. for 60 min. The positive control peptide 21j was performed at the same conditions except at pH 7.4. Average yields and SDs were calculated from experiments performed in triplicate. The amino acid sequence of the peptides used are set forth in SEQ ID Nos. 15-24.
(§2) FIG. 10. Ligation activity of three different ligases under different pH and substrate. Cyclization activity of A) VyPAL2, B) Butelase-1 or C) OaAEP1b towards substrate 21e-DSL and 21j-NGL; Fold difference was calculated using the cyclization rate of 21j-NGL divided by that of 21e-DSL. All the results were the average reaction rate at different pH in triplicate experiments based on MALDI-TOF analysis. Light grey text in the “Fold difference” axis marks to the maximum fold difference.
(§3) FIG. 11. Enzymatic activity of three different ligases on the cyclization reaction of P1-Asp peptide 21e-DSL or 21a-DGL and P1-Asn-peptide 21j-NGL. A) Scheme of PAL-mediated P1-Asp peptide cyclization; B) Enzymatic kinetics of VyPAL2 in cyclizing 21e-DSL at pH 4.5; C) Enzymatic kinetics of VyPAL2 in cyclizing 21e-DSL at pH 7.0; D) Enzymatic kinetics of OaAEP1b in cyclizing 21a-DGL at pH 5.5; E) Enzymatic kinetics of Butelase-1 in cyclizing 21e-DSL at pH 4.5. F) Scheme of PAL-mediated cyclization of peptide 21j-NGL; G). Enzymatic kinetics of butelase-1 in cyclizing […] at pH 4.5; H)
(§4) Enzymatic kinetics of VyPAL2 in cyclizing 21j-NSL at pH 4.5; I) Enzymatic kinetics of butelase-1 in cyclizing 21j-NSL at pH 7.4; J) Enzymatic kinetics of OaAEP1b in cyclizing 21j-NSL at pH 7.0. Sequences of peptides used are set forth in SEQ ID Nos. 15, 19, 24.
(§5) PALs recognize a tripeptide motif Asx-P1′-P2′ in the acyl donor substrate for their catalyzed ligation reactions. Because the formation of the acyl-enzyme thioester intermediate is the rate-limiting step, the leaving group P1′-P2′ also plays an important role in determining the catalytic kinetics of a particular 40 PAL-mediated reaction. Previous studies have determined Leu as a preferred P2′ residue. To identify the most favorable P1′ residues for PAL-catalyzed Asp-ligation, a panel of peptides (peptide 21a-21j) with C-terminal DXL and N-terminal GI motifs was synthesized and cyclization reactions performed. Peptide 21j with a C-terminal NGL, a P1-Asn peptide favored by VyPAL2, was used for comparison with the P1-Asp peptides 21a-21i. […] Meanwhile, the P1′ substrate specificities of the two other ligases - Butelase-1 and OaAEP1b - were also evaluated by using the same substrates 21a-21j.
scanning experiment using the two peptides 21e and 21j was performed. Cyclization reactions were conducted by mixing 5 μM of peptide 21e or 50 μM of 21j with 25 nM of VyPAL2 over a pH range of 4.0 to 7.4. Results confirmed that the optimum pH for the cyclization of the P1-Asn peptide 21j was 6.5-7.4. But for the P1-Asp peptide 21e (which has the C-terminal DSL tripeptide), the optimum pH was 4.0-4.5.
It is worth noting that, at pH 7.4, VyPAL2 processed peptide 21j for cyclization at a rate that is >1000 folds faster than processing peptide 21e (FIG. 10). This enormous difference of reactivity essentially established the orthogonality for ligation at Asn in the presence of aspartyl bonds.

butelase-1 [2] = test: Butelase-1-catalyzed peptide cyclization (substrate screen, pH scan, kinetics); format: biochemical; details: for substrate preference among P1-Asp peptides: 25 nM butelase-1, 5 μM peptide, pH 4.5, 25° C., 60 min
Procedure: as §1, §2, §3, §4, §5
A pH scan experiment with the other two ligases: butelase-1 and OaAEP1 b, for their cyclase activity on 21e and 21j was also conducted. […] In fact, the difference in reaction efficiency between 21j and 21e was about 950 times at pH 7.4 (FIG. 10). […] This makes VyPAL2 a more efficient ligase than butelase-1 for Asp-mediated protein modification.

butelase-1 [3] = test: Butelase-1-mediated intermolecular peptide ligation kinetics (HPLC); format: biochemical; details: for Km / kcat: Butelase-1, limiting substrate 50-800 μM, partner peptide constant
Procedure: (§6) FIG. 3. Kinetic studies on VyPAL2- and butelase 1-catalyzed intermolecular ligations. A) Peptide 1 (SEQ ID NO:7) containing the C-terminal NHV sequence was used at varying concentrations (50 — 800 μM) to react with peptide 2 (SEQ ID NO:8) at constant concentration (1 mM); B) Peptide 4 (SEQ ID NO:9) at a constant concentration (1.5 mM) was reacted with the GF-peptide 5 (SEQ ID NO:10) at varying concentrations (50-800 μM). C) Peptide 2 at a constant concentration (1.5 mM) was reacted with the -NGF peptide 7 (SEQ ID NO:11) at varying concentrations (50-800 μM). The ligation product 3 or 6 was confirmed by ESI-MS. The reaction rates were calculated from the consumption of the limiting substrate 1, 5 or 7. Initial rate (V0) at different concentrations of the limiting substrate were used for Michaelis-Menten curve plotting. For each kinetic calculation, a lineweaver-Burk plot was also used to confirm the analysis.
(§7) PAL enzymes have been used extensively for protein single-site labeling and macrocyclization. However, using two PALs of different substrate specificity for bio-orthogonal and dual ligation remains unexplored. […] To determine the differences quantitatively, firstly the kinetics of VyPAL2 and butelase-1 toward peptide 1 or 7 which has a C-terminal NHV or NGF tripeptide motif respectively were studied (Table 1). The nucleophile substrate, used at a constant concentration, was peptide 2 which contains an N-terminal GI dipeptide motif. Reverse-phase analytical HPLC was used to monitor and quantify the ligation reaction. […] Similarly, kinetics of the two ligases towards a GF-starting nucleophile substrate, peptide 5, were also examined.
(§8) In this case, the acyl substrate, now kept at a constant concentration for the kinetic study, was peptide 4 which contains NGL at the C-terminus, a favorable motif for both VyPAL2 and butelase-1. It was shown that VyPAL2 has 5-fold catalytic efficiency than butelase-1 towards the GF-peptide substrate 5 (Table 1 and FIG. 3). In summary, the kinetic studies confirm the differential activities of butelase-1 and VyPAL2 toward certain substrate sequences, which provide strong support for a two-PAL, bio-orthogonal tandem ligation scheme for protein dual labeling.

VyPAL2 [4] = test: VyPAL2-mediated intermolecular peptide ligation kinetics (HPLC); format: biochemical, Viola yedoensis; details: for Km / kcat: VyPAL2, limiting substrate 50-800 μM; for Km: partner peptide constant; for kcat: partner peptide constant (1 with 2 at 1 mM; 5 with 4 at 1.5 mM; 7 with 2 at 1.5 mM); for catalytic activity/efficiency of VyPAL2 relative to butelase-1 towards the substrate: intermolecular ligation
Procedure: as §6, §7, §8

[5] = target: T1, Peptide 1 (SEQ ID NO:7), Ac-KKLAVINHV
T1 chain: KKLAVINHV

[6] = target: T2, Peptide 7 (SEQ ID NO:11), Ac-KKLAVINGF
T2 chain: KKLAVINGF

[7] = target: T3, Peptide 21e (SEQ ID NO:19), GISTKSIPPISYRDSL
T3 chain: GISTKSIPPISYRDSL

[8] = target: T4, Peptide 21j (SEQ ID NO:24), GISTKSIPPISYRNGL
T4 chain: GISTKSIPPISYRNGL

[9] = target: T5, Peptide 5 (SEQ ID NO:10), GFGGIKA
T5 chain: GFGGIKA

[10] = Butelase-1, cyclization, pH 4.5

VyPAL2, sequence (as listed by the source): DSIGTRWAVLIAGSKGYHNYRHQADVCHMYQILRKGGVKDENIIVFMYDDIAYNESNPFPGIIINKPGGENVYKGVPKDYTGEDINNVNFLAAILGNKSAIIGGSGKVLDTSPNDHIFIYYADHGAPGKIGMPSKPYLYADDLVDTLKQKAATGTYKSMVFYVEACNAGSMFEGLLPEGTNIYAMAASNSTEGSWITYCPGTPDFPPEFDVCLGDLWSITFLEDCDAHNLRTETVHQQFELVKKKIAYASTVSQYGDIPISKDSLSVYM

GISTKSIPPISYRDSL (GISTKSIPPISYRDSL-NH2) [Peptide 21e]
cyclization rate among P1-Asp peptides 21a-21i (VyPAL2 [1]; 25 nM VyPAL2, 5 μM peptide, pH 4.5, 25° C., 60 min): fastest cyclization rate | optimum pH for cyclization (VyPAL2 [1]; 25 nM VyPAL2, pH range 4.0 to 7.4, 5 μM 21e or 50 μM 21j): 4.0-4.5 | Km (VyPAL2 [1]; VyPAL2, cyclization, pH 4.5): 25.6 ± 2.6 µM | kcat (VyPAL2 [1]; VyPAL2, cyclization, pH 4.5): 0.28 ± 0.023 s⁻¹ | Km (VyPAL2 [1]; VyPAL2, cyclization, pH 7.0): 42.3 ± 2.8 µM | kcat (VyPAL2 [1]; VyPAL2, cyclization, pH 7.0): 0.021 ± 0.001 s⁻¹ | Vmax (VyPAL2 [1]; VyPAL2, cyclization, pH 7.4): 0.004 µM/min | Km (butelase-1 [2]; [10]): 16.6 ± 2.3 µM | kcat (butelase-1 [2]; [10]): 0.11 ± 0.01 s⁻¹

GISTKSIPPISYRDKL (GISTKSIPPISYRDKL-NH2) [Peptide 21g]
substrate preference among P1-Asp peptides (butelase-1 [2]): slight preference

GFGGIKA (GFGGIKA-NH2) [Peptide 5]
Km (butelase-1 [3]): 365 ± 3 µM | kcat (butelase-1 [3]): 1.55 ± 0.01 S^−1 | Km (VyPAL2 [4]): 424 ± 26 µM | kcat (VyPAL2 [4]): 8.29 ± 0.48 S^−1 | catalytic activity/efficiency of VyPAL2 relative to butelase-1 towards the substrate (VyPAL2 [4]): 5 times

GISTKSIPPISYRDLL (GISTKSIPPISYRDLL-NH2) [Peptide 21d]
substrate preference among P1-Asp peptides (butelase-1 [2]): slight preference

GISTKSIPPISYRDQL (GISTKSIPPISYRDQL-NH2) [Peptide 21h]
substrate preference among P1-Asp peptides (butelase-1 [2]): slight preference

Ac-KKLAVINHV (Ac-KKLAVINHV-NH2) [Peptide 1]
Km (butelase-1 [3]): 85 ± 3 µM | kcat (butelase-1 [3]): 1.47 ± 0.04 S^−1 | catalytic activity of butelase-1 relative to VyPAL2 towards the substrate (butelase-1 [3]; intermolecular ligation): about 18 times | Km (VyPAL2 [4]): 182 ± 6 µM | kcat (VyPAL2 [4]): 0.17 ± 0.01 S^−1

Ac-KKLAVINGF (Ac-KKLAVINGF-NH2) [Peptide 7]
Km (butelase-1 [3]): 175 ± 1 µM | kcat (butelase-1 [3]): 0.46 ± 0.04 S^−1 | Km (VyPAL2 [4]): 155 ± 15 µM | kcat (VyPAL2 [4]): 1.10 ± 0.03 S^−1 | catalytic activity/efficiency of VyPAL2 relative to butelase-1 towards the substrate (VyPAL2 [4]): about 3 times

GISTKSIPPISYRDRL (GISTKSIPPISYRDRL-NH2) [Peptide 21f]
substrate preference among P1-Asp peptides (butelase-1 [2]): least favored P1-Asp substrate

B1: butelase-1 (asparaginyl ligase, active form, SEQ ID NO:2) (protein)
chain: VEGTRWAVLVAGSKGYVNYRHQADVCHAYQILKKGGLKDENIIVFMYDDIAYNESNPHPGVIINHPYGSDVYKGVPKDYVGEDINPPNFYAVLLANKSALTGTGSGKVLDSGPNDHVFIYYTDHGGAGVLGMPSKPYIAASDLNDVLKKKHASGTYKSIVFYVESCESGSMFDGLLPEDHNIYVMGASDTGESSWVTYCPLQHPSPPPEYDVCVGDLFSVAWLEDCDVHNLQTETFQQQYEVVKNKTIVALIEDGTHVVQYGDVGLSKQTLFVYMGTDPAN
Km, intermolecular ligation of peptide 1 (varied) with nucleophile peptide 2 [5]: 85 µM | kcat, intermolecular ligation of peptide 1 (varied) with nucleophile peptide 2 [5]: 1.47 S^-1 | kcat/Km, intermolecular ligation of peptide 1 (varied) with nucleophile peptide 2 [5]: 17300 M^-1S^-1 | Km, intermolecular ligation of peptide 7 (varied) with nucleophile peptide 2 [6]: 175 µM | kcat, intermolecular ligation of peptide 7 (varied) with nucleophile peptide 2 [6]: 0.46 S^-1 | kcat/Km, intermolecular ligation of peptide 7 (varied) with nucleophile peptide 2 [6]: 2650 M^-1S^-1 | Km, cyclization at pH 4.5 [7]: 16.6 µM | kcat, cyclization at pH 4.5 [7]: 0.11 s⁻¹ | kcat/Km, cyclization at pH 4.5 [7]: 7210 ± 489 M^-1s^-1 | Km, cyclization at pH 4.5 [8]: 12.7 µM | Km, cyclization at pH 7.4 [8]: 13.5 µM | kcat, cyclization at pH 4.5 [8]: 0.6 s⁻¹ | kcat, cyclization at pH 7.4 [8]: 9.4 s⁻¹ | kcat/Km, cyclization at pH 4.5 [8]: 47100 ± 3740 M^-1s^-1 | kcat/Km, cyclization at pH 7.4 [8]: 714200 ± 5390 M^-1s^-1 | Km, intermolecular ligation of GF-peptide 5 (varied) with acyl substrate peptide 4 [9]: 365 µM | kcat, intermolecular ligation of GF-peptide 5 (varied) with acyl substrate peptide 4 [9]: 1.55 S^-1 | kcat/Km, intermolecular ligation of GF-peptide 5 (varied) with acyl substrate peptide 4 [9]: 4260 M^-1S^-1
